Experimental data published in US20230346954A1, “N-1 BRANCHED IMIDAZOQUINOLINES, CONJUGATES THEREOF, AND METHODS” (3M INNOVATIVE PROPERTIES COMPANY, priority 2020, published 2023).

Key:
Format in all cases: cell-based
[1] = tested on: Human peripheral blood mononuclear cells (PBMC); assay: Cytokine induction in human cells (PBMC); settings: 21-24 h, lowest concentration giving at least 2x negative control; for MEC to Induce Cytokine: IFN-alpha: ELISA; for MEC to Induce Cytokine: IFN-gamma / MEC to Induce Cytokine: TNF-alpha: multiplex bead assay
Method: Whole blood was obtained from healthy human donors and collected by venipuncture into vacutainer tubes or syringes containing EDTA. Human peripheral blood mononuclear cells (PBMC) were purified from the whole blood by density gradient centrifugation. Histopaque 1077 (15 mL, Sigma, St. Louis, MO) was transferred to 6×50 mL sterile polypropylene conical tubes. The Histopaque was overlayed with 15-25 mL of blood diluted 1:2 in Hank's Balanced Salts Solution (HBSS) (Gibco, Life Technologies, Grand Island, NY). The tubes were then centrifuged at 1370 revolutions per minute (rpm) for 30 min at 20° C., with no brake (400×g, GH 3.8A Rotor).
The interface (buffy coat) containing the PBMC was collected and placed in a new sterile 50 mL conical polypropylene centrifuge tube. The PBMC were mixed with an equal volume of HBSS (about 20 mL from the interface and about 20 mL of HBSS), and then centrifuged at 1090 rpm, 10 min, 20° C., with brake (270×g, GH 3.8A Rotor). After completing centrifugation, the cells were resuspended in 2-3 mL ACK Red blood cell lysis buffer (ammonium chloride potassium solution, Gibco, Life Technologies) and incubated for 2-5 min at 20° C. Next, HBSS (40 mL) was added to the cells, and the sample was centrifuged at 270×g for 10 min at 20° C. The supernatant was decanted, and the cell pellet was resuspended in 5 mL AIM V Medium (Gibco, Life Technologies). Cell aggregates and debris were removed by filtering the cell solution through a BD Falcon 70 micron nylon cell strainer (BD Biosciences, San Jose, CA).
The number of viable cells was determined by counting with a Miltenyi FACS instrument (Miltenyi Biotec Inc., San Diego, CA) or by using a hemacytometer. For determining cell viability with a hemacytometer, the cells were diluted 1/10 in 0.4% trypan blue and HBSS (specifically, 50 microliter of trypan blue+40 microliter of HBSS+10 microliter of cell solution were added to a microfuge tube and mixed). Ten microliters of the diluted cells were then applied to the hemacytometer, and the number of viable PBMC were determined by microscopy.
The PBMC sample was then resuspended in 96-well plates at a concentration of 8×10^5 cells/well in 0.1 mL of AIM-V medium. Each compound was solubilized in dimethyl sulfoxide (DMSO) to create a 3 mM stock solution. The stock solution was then further diluted with AIM-V medium to prepare the serial dilutions. The diluted compound (100 microliters) was then transferred to the PBMCs to produce testing sets with final compound concentrations of 30, 10, 3.3, 1.1, 0.37, 0.12, 0.04, 0.01 micromolar. The plates also had both positive and negative controls. The negative control wells contained only AIM-V medium with no example compound. The positive control wells contained a control set of imiquimod serially diluted to concentrations of 30, 10, 3.3, 1.1, 0.37, 0.12, 0.04, 0.01 micromolar. The concentrations used in the control set were selected to match the concentrations used in the testing set. The plates were then cultured at 37° C./5% CO2 for 21-24 h. Cell-free supernatants were harvested by centrifuging the 96-well plates at 2100 rpm, 23° C. for 10 min. Approximately 160 microliters of the supernatant was then stored in a NUNC 96-well plate, covered with the compression cap and stored at −80° C. until the cytokine analysis was done.
IFN-alpha cytokine levels (picograms/mL) were measured by ELISA (human IFN-alpha, pan specific, Mabtech, Cincinnati, OH). IFN-gamma and TNF-alpha levels (picograms/mL) were measured by multiplex bead assay (magnetic beads, R & D Systems, Minneapolis, MN) according to the manufacturer's instructions.
Specifically, the minimum effective concentration of each compound (micromolar) was determined as the lowest concentration of the compound that induced a measured cytokine response at a level ([…]) that was at least 2× greater than that observed with the negative control wells.

[2] = target: T1, human TLR7 (Homo sapiens, UniProt Q9NYK1); assay: TLR activation, HEK-BLUE-hTLR7 SEAP reporter cells; settings: HEK-BLUE-hTLR7, 16-20 h; SEAP response at least 2x vehicle control
T1 construct: host or cells: HEK293 (HEK-BLUE-hTLR7)
T1 sequence (Q9NYK1 27-1049): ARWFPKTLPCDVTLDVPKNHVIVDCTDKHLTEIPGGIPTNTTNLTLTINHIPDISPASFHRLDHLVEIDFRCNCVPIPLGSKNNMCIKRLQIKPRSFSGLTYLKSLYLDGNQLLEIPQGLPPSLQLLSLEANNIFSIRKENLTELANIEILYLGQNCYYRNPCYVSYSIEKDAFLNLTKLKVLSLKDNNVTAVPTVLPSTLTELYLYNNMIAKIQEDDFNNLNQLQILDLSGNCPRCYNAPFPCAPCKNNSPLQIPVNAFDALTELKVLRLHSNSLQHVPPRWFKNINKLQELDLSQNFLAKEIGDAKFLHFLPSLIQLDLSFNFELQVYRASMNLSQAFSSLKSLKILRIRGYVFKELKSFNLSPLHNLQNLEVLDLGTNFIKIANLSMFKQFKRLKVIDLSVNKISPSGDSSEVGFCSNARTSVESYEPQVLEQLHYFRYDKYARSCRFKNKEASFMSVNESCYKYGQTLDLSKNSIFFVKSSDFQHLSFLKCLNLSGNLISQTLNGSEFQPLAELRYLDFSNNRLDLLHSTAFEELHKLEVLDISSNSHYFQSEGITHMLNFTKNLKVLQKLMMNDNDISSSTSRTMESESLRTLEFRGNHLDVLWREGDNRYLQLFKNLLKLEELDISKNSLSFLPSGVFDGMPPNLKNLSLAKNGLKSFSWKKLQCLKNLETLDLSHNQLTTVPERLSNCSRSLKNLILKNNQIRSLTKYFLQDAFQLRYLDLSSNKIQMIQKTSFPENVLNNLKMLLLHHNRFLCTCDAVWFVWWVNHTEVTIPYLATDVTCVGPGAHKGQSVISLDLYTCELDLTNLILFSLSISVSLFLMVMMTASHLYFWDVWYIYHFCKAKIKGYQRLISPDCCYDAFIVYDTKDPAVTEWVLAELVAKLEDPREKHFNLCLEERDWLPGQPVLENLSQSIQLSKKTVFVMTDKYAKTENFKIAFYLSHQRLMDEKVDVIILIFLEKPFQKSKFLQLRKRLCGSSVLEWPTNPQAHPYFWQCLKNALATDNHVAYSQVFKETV
Method: (§1) HEK-BLUE-hTLR7 or hTLR8 reporter cells were obtained from InvivoGen, San Diego, CA. According to the manufacturer's description, these reporter cells were prepared by co-transfection of HEK293 cells with an inducible secreted embryonic alkaline phosphatase (SEAP) reporter gene and either the human TLR7 or TLR8 gene. The SEAP reporter gene was placed under the control of an IFN-β minimal promoter fused to five NF-κB and AP-1-binding sites. In the presence of a TLR ligand, activation of NF-κB and AP-1 occurs, resulting in a corresponding increase in SEAP levels. […]
(§2) For each compound, hTLR7, hTLR8, and their respective null control HEK cells were screened. […] Cell culture supernatants containing the SEAP reporter were collected after an incubation period of 16-20 h in a cell culture incubator (37° C. and 5% CO2), and either analyzed immediately or stored at −80° C. SEAP levels were measured using the colorimetric enzyme assay (QUANTI-BLUE (InvivoGen) according to manufacturer's instructions.
(§3) Specifically, the minimum effective concentration of each compound (micromolar) was determined as the lowest concentration of the compound that produced a SEAP expression response at least 2× greater than that observed with the vehicle control wells.

[3] = target: T2, human TLR8 (Homo sapiens, UniProt Q9NR97); assay: TLR activation, HEK-BLUE-hTLR8 SEAP reporter cells; settings: HEK-BLUE-hTLR8, 16-20 h; SEAP response at least 2x vehicle control
T2 construct: host or cells: HEK293 (HEK-BLUE-hTLR8)
T2 sequence (Q9NR97 27-1041): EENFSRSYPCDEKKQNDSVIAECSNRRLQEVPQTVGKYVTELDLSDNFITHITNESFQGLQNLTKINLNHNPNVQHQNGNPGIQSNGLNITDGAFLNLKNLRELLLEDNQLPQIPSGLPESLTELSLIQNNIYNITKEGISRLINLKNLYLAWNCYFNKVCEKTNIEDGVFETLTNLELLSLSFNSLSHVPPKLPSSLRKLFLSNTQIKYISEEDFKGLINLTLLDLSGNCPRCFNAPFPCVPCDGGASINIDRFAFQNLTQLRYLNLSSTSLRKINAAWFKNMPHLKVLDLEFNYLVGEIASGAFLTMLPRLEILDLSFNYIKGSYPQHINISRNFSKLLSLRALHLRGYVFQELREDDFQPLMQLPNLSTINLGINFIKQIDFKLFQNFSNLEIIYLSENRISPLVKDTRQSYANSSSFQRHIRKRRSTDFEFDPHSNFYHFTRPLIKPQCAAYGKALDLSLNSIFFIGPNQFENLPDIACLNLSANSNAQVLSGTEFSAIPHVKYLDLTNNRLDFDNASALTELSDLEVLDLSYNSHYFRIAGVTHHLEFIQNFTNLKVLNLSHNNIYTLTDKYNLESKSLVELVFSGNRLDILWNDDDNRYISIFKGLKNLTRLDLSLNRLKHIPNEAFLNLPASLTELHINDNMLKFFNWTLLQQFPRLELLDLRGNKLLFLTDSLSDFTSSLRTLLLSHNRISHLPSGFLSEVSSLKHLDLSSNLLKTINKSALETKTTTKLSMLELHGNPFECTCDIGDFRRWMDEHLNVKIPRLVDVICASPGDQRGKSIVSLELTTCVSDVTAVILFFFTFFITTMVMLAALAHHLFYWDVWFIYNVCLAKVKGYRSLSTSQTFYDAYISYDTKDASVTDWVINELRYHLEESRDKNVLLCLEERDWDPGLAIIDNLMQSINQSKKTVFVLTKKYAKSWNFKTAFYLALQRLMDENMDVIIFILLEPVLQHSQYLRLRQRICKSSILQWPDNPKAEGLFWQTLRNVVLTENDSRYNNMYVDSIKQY
Method: as §1, §2, §3

Row | MEC to Produce TLR Activation: TLR 7 [2] [µM] | MEC to Produce TLR Activation: TLR 8 [3] [µM] | Structure (SMILES) | MEC to Induce Cytokine: IFN-alpha [1] [µM] | MEC to Induce Cytokine: IFN-gamma [1] [µM] | MEC to Induce Cytokine: TNF-alpha [1] [µM]
1 | ≤0.01 | 1.1 | CCOC[C@H](Cc1ccc(OCCO)cc1)n1cnc2c(N)nc3ccccc3c21 [Example 1, (S)-2-(4-(2-(4-amino-1H-imidazo[4,5-c]quinolin-1-yl)-3-ethoxypropyl)phenoxy)ethan-1-ol] | ≤0.01 | ≤0.01 | ≤0.01
2 | ≤0.01 | 1.1 | CCOC[C@H](Cc1ccc(OCCN)cc1)n1cnc2c(N)nc3ccccc3c21 [Example 2, (S)-1-(1-(4-(2-aminoethoxy)phenyl)-3-ethoxypropan-2-yl)-1H-imidazo[4,5-c]quinolin-4-amine] | ≤0.01 | ≤0.01 | ≤0.01
